Results as given in patent publication US9475854B2, “Lead compound for otoprotection: targeting HGF signaling with dihexa” (Washington State University, priority 2014, dated 2016).
Square brackets hold non-standard residues; d marks the D form. Peptide text beside a SMILES is read from it. * marks the point of attachment. Hexanoyl = CCCCCC(=O)*; Ahx = NCCCCCC(=O)O

Columns and labels:
[1] = test system: rat Parkinson's Disease model; conditions: in vivo administration (McCoy et al., 2013; unpublished data); cited from earlier work
rat dementia model = conditions: in vivo administration (McCoy et al., 2013; unpublished data); cited from earlier work
[2] = Short duration safety studies; format: in vivo
Source text: This is unsurprising since oncogenesis requires multiple mutations including both oncogene induction and tumor suppressor attenuation. Accordingly, Dihexa, as utilized herein, can also be delivered locally via intratympanic membrane injection of a Dihexa-containing hydrogel (e.g., Salt et al., 2011; Wang et al., 2011) as a way of the proof-of-principle that Dihexa is robustly otoprotective in for example, but not limited to, pre-clinical models.

[3] = test system: zebrafish lateral line hair cells; test: Protection of zebrafish lateral line hair cells from aminoglycoside toxicity (hair cell survival); format: in vivo; conditions: for hair cell survival rate: 1 μM Dihexa
Source text: The data is presented as mean+1 standard deviation (s.d.) ***p<0.005. ****p<0.001, with the number of stars being the confidence for the measurements and the p (i.e., p-value) being the probability of obtaining a test statistic result at least as extreme as the one that was actually observed. It is to be appreciated the differences are considered significant at P<0.05. Note also that the 0 Dihexa concentration levels in FIG. 1 and FIG. 2 are control levels no protective Dihexa was introduced as just Neomycin and Gentamicin is present in the hair cells.
Such an example method of operation can be enabled by providing Dihexa concentrations for each ototoxin. […] Toxin concentrations and treatment times are selected so that in each case, a range of about 60% up to about 80% hair cell loss is achieved, sufficient to robustly detect protection. While the methodology described above provides desirable information for a variety of ototoxins, the Dihexa-mediated protection for neomycin, gentamicin, and kanamycin, as enabled herein, is the most desirable because these three antibiotics activate partially independent cell death pathways, such that a single compound may not universally protect hair cells from aminoglycoside toxicity (Owens et al., 2009; Coffin et al., 2009; Vlasits et al., 2012; Coffin et al., 2013).
As part of the analysis process, after treatment, hair cell survival is more often quantitatively assessed by labeling with either the vital dye DASPEI for assessment in live, anesthetized fish, or with an antibody to parvalbumin for quantification in fixed tissue (Harris et al., 2003; Owens et al., 2009; Coffin et al., 2009, 2013). DASPEI allows for rapid assessment with minimal tissue processing time, while immunofluorescence is used to validate DASPEI assessment scores. Labeled hair cells are thereafter viewed using fluorescence microscopy and quantified as described in the published literature (e.g., Harris et al., 2003; Coffin et al., 2009, 2013). […]

rats = conditions: in vivo in rats (Owens et al., 2008, Rubel et al., 2011); cited from earlier work

CCCCCC(=O)N[C@@H](Cc1ccc(O)cc1)C(=O)N[C@H](C(=O)NCCCCCC(N)=O)[C@@H](C)CC [Dihexa] (Hexanoyl-Tyr-Ile-[Ahx]-NH2)
symptoms in rat Parkinson's Disease model [1]: significantly attenuates symptoms
symptoms in rat dementia model (rat dementia model): significantly attenuates symptoms
neoplastic induction [2]: lack of neoplastic induction
toxicity [2]: no apparent toxicity
protection from Neomycin-induced hair cell death ([3]; 1 μM Dihexa across Neomycin dose levels, FIG. 3): robust protection
hair cell survival rate ([3]; 50 μM Gentamycin toxicity, FIG. 2): greater than 40%
hair cell survival rate ([3]; 200 μM Neomycin toxicity, FIG. 1): greater than 60%

CCN1CCc2c(sc(NC(=O)Nc3ccc(Cl)cc3)c2C(N)=O)C1 [PROTO-1]
protection from aminoglycosides (rats): confers protection
